Experimental data reported in ChEMBL document CHEMBL1131447 (J Med Chem, 1998).

Tests used:
Rattus norvegicus [1] = species: Rattus norvegicus; assay: Inhibition of apomorphine-induced stereotypy in rats.; type: functional
[2] = biological target: T1, Adrenergic receptor alpha-2 (Rattus norvegicus, UniProt P22086+P19328+P22909); assay: Binding affinity measured at the Alpha-2 adrenergic receptor by the inhibition of [3H]clonidine binding to rat cortex using unlabeled NAbitartrate for nonspecific binding.
T1 sequence (P22086 whole entry): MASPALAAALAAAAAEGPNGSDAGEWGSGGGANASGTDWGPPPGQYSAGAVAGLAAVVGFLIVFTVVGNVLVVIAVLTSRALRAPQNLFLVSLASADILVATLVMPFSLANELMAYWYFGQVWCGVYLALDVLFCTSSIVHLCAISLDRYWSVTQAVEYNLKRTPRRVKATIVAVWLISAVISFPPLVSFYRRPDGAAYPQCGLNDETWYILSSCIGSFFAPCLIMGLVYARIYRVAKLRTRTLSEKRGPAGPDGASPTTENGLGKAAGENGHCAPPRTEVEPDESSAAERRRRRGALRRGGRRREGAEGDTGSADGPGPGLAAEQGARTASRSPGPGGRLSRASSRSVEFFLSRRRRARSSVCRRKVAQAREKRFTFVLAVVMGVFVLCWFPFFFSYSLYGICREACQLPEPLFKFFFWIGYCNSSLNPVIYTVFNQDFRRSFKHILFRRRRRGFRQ
T1 sequence (P19328 whole entry): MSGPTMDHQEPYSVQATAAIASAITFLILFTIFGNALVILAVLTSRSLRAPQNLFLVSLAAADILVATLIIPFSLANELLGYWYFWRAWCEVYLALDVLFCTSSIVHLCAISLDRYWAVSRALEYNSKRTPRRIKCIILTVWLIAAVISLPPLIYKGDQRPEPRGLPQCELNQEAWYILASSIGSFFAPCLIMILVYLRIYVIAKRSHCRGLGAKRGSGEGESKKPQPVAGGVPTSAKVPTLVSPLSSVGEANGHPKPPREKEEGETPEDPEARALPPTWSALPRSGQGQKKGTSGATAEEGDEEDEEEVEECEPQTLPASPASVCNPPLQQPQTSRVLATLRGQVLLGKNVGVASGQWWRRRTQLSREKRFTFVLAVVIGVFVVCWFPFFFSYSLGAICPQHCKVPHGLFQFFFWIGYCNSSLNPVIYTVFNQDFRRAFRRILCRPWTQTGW
T1 sequence (P22909 whole entry): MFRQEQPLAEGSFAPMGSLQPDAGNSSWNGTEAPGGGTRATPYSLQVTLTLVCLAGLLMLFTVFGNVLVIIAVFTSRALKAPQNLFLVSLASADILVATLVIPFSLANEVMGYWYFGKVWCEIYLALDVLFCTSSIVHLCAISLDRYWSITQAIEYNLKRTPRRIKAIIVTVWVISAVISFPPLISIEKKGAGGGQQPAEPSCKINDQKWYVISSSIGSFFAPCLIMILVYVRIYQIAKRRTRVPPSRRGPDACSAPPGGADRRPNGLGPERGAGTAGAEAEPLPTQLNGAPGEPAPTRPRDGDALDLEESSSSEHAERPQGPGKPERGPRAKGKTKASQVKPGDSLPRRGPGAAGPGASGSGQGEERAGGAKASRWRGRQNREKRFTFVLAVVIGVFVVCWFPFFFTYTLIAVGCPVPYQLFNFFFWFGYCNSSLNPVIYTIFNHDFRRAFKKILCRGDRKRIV

D(1A) dopamine receptor = D(1A) dopamine receptor (Rattus norvegicus, UniProt P18901); assay: biochemical
Description: Binding affinity measured at the Dopamine receptor D1 by the inhibition of [3H]SCH-23390 binding to rat striatum using unlabeled apomorphine for nonspecific binding.

[3] = biological target: T2, 5-hydroxytryptamine receptor 2A (Rattus norvegicus, UniProt P14842)
Description: Binding affinity measured at the 5-hydroxytryptamine 2A receptor by the inhibition of [3H]ketanserin binding to rat cortex using unlabeled mianserin for nonspecific binding.

[4] = biological target: T3, Alpha-1A adrenergic receptor (Rattus norvegicus, UniProt P43140)
T3 sequence (P43140 whole entry): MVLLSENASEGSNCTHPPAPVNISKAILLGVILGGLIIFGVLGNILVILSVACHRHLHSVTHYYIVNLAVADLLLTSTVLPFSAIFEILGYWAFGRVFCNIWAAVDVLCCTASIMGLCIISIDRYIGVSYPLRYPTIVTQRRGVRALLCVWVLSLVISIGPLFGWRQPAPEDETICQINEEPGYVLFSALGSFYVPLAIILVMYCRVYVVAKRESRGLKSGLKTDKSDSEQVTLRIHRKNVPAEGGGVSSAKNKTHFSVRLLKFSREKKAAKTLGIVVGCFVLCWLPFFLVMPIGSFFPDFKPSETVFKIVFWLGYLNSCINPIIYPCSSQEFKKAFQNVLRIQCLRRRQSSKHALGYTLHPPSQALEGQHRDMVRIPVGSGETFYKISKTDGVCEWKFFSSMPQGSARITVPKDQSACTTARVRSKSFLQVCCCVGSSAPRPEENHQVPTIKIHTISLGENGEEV
Description: Binding affinity measured at the Alpha-1A adrenergic receptor by the inhibition of [3H]prazosin binding to rat cortex using unlabeled WB-4101 for nonspecific binding.

[5] = biological target: T2, 5-hydroxytryptamine receptor 2A; remark: listed apart in the source
D(3) dopamine receptor = D(3) dopamine receptor (Homo sapiens, UniProt P35462); assay: Binding affinity measured at the Dopamine receptor D3 by the inhibition of [3H]YM-09151-2 binding to human recombinant CCL 1.3 cells using unlabeled 7-OH-DPAT for nonspecific binding.
Mus musculus [6] = assay: In vivo antipsychotic activity measured by the inhibition of apomorphine-induced climbing behavior in mice after 30 min po administration.; type: functional; conditions: 0.5 h
Mus musculus [7] = species: Mus musculus; assay: Inhibition of p-chloroamphetamine-induced hyperactivity in mice.; type: functional
Rattus norvegicus [8] = assay: In vivo antipsychotic activity measured by the induction of catalepsy in rats after po administration.; type: functional
[9] = biological target: Muscarinic acetylcholine receptor; assay: Binding affinity measured at the Muscarinic acetylcholine receptor by the inhibition of [3H]-pyrilamine binding to guinea pig cerebellum using unlabeled Triprolidine for nonspecific binding.; type: tissue-based, Cavia porcellus
Mus musculus [10] = species: Mus musculus; assay: Inhibition of grooming-induced by SKF 38393 in mice.; type: functional
Mus musculus [11] = species: Mus musculus; assay: Inhibition of head twitches-induced by 2,5-dimethoxy-4-iodoamphetamine in mice.; type: functional
[12] = biological target: T4, 5-hydroxytryptamine receptor 1A (Rattus norvegicus, UniProt P19327); assay: Binding affinity measured at the 5-hydroxytryptamine 1A receptor by the inhibition of [3H]8-OH-DPAT binding to rat cortex using unlabeled buspirone for nonspecific binding.
T4 sequence (P19327 whole entry): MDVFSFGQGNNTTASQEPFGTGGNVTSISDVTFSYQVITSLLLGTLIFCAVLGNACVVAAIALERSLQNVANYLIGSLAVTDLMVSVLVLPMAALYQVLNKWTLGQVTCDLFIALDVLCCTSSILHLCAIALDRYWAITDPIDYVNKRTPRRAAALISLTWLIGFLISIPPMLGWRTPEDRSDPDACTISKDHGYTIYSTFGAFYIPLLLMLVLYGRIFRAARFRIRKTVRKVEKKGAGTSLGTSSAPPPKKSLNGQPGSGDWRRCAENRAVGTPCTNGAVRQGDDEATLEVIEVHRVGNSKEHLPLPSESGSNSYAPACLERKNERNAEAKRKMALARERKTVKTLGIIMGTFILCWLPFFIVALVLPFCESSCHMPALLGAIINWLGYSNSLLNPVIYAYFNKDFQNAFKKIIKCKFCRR

D(4) dopamine receptor = biological target: T5, D(4) dopamine receptor (Homo sapiens, UniProt P21917); assay: biochemical
T5 sequence (P21917 whole entry): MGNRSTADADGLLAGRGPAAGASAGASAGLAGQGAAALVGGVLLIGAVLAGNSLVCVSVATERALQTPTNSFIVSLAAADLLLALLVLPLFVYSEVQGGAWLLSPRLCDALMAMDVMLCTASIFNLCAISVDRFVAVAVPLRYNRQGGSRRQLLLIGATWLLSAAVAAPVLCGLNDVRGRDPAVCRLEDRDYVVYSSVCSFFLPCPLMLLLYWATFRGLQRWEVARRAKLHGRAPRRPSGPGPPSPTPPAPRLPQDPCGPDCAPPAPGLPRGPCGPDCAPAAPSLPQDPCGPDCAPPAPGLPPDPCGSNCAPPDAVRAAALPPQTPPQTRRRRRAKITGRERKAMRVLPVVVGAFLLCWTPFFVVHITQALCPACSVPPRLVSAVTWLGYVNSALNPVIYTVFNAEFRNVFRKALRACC

Adrenergic receptor beta = Adrenergic receptor beta (Rattus norvegicus, UniProt P18090+P10608+P26255); assay: Binding affinity measured at the Beta adrenergic receptor by the inhibition of [3H]DHA binding to rat cortex using unlabeled isoprenalin for nonspecific binding.
Rattus norvegicus [13] = assay: In vivo antipsychotic activity measured by the induction of catalepsy in rats after po administration; type: functional
[14] = biological target: Beta-1 adrenergic receptor (Rattus norvegicus, UniProt P18090); assay: Binding affinity measured at the Beta-1 adrenergic receptor by the inhibition of [3H]DHA binding to rat cortex using unlabeled isoprenalin for nonspecific binding.
Chain of Beta-1 adrenergic receptor (P18090 whole entry): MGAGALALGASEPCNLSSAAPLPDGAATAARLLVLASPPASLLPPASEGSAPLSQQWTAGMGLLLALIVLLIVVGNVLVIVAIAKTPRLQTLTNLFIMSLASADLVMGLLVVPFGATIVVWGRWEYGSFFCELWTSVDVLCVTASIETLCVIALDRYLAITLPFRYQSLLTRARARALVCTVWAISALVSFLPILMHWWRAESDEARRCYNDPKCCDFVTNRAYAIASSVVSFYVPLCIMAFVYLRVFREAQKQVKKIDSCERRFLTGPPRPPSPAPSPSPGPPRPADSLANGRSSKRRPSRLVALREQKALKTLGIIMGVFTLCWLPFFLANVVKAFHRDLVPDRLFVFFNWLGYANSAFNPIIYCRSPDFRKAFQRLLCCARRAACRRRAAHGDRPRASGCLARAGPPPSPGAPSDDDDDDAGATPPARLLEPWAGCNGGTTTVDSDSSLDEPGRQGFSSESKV

T2 sequence (P14842 whole entry): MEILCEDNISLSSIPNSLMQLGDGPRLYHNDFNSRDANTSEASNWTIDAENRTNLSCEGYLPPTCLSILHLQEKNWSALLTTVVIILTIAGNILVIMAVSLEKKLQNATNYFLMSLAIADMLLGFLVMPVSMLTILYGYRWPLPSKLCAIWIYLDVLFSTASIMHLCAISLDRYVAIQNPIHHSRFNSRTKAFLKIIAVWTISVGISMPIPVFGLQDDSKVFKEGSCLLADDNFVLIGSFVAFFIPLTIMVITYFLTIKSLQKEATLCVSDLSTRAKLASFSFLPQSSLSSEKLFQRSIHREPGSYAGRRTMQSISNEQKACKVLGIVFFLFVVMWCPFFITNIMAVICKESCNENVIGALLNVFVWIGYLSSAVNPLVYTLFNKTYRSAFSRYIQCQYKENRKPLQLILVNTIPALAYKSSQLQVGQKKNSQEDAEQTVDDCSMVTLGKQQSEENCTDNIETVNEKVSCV
Chain of D(3) dopamine receptor (P35462 whole entry): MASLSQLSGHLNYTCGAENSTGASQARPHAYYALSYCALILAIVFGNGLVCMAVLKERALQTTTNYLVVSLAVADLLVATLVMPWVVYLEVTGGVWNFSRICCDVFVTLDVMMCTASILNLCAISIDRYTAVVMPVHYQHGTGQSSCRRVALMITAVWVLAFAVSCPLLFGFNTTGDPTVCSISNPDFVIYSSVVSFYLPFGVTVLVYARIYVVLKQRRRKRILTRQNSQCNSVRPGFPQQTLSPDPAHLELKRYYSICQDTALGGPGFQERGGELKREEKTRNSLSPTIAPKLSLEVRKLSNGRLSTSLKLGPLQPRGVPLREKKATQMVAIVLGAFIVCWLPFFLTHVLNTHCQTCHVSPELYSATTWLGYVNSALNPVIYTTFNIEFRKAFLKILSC
Chain of D(1A) dopamine receptor (P18901 whole entry): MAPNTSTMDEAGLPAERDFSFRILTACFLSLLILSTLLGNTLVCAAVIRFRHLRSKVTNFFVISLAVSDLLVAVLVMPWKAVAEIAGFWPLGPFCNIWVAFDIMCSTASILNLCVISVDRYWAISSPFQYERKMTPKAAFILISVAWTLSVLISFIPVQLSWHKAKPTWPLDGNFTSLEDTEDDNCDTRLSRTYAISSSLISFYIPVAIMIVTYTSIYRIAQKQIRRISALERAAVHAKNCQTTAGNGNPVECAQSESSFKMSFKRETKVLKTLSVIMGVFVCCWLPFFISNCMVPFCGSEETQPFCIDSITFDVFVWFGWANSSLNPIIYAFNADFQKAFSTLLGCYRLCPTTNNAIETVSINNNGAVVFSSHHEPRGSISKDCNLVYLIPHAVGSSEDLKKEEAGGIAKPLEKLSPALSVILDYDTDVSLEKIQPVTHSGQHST

Row | IC50 [5] | SMILES | ED50 (Mus musculus [6]) | ED50 (Mus musculus [7]) | ED50 (Rattus norvegicus [8]) | ED50 (Mus musculus [10]) | further results
1 | 6.2 nM | O=c1c(CO)coc2cc(OCCCN3CCC(c4noc5cc(F)ccc45)CC3)ccc12 [ABAPERIDONE] | 0.24 mg/kg | 0.16 mg/kg | 8.48 mg/kg | 0.31 mg/kg | ED50 (Rattus norvegicus [1]): 18.6 mg/kg; Ki [2]: 169 nM; Ki (D(1A) dopamine receptor): 239 nM; Ki [3]: 1.9 nM; Ki [4]: 2.4 nM; Ki (D(3) dopamine receptor): 5.4 nM; Ki [9]: 1130 nM; ED50 (Mus musculus [11]): 0.08 mg/kg; Ki [12]: 94 nM; Ki (D(4) dopamine receptor): 179 nM; Ki (Adrenergic receptor beta): 2990 nM
2 | – | O=Cc1coc2cc(OCCCN3CCC(c4noc5cc(F)ccc45)CC3)ccc2c1=O | 3.32 mg/kg | – | – | – | ED50 (Rattus norvegicus [13]): 15.9 mg/kg
3 | – | Cc1coc2cc(OCCCN3CCC(c4noc5cc(F)ccc45)CC3)ccc2c1=O | 0.4 mg/kg | – | 2.85 mg/kg | – | –
4 | 8.6 nM | O=c1ccoc2cc(OCCCN3CCC(c4noc5cc(F)ccc45)CC3)ccc12 | 1.08 mg/kg | – | 12.6 mg/kg | – | –
5 | 32.9 nM | O=C(c1ccc(F)cc1)C1CCN(CCCOc2ccc3c(=O)c(CO)coc3c2)CC1 | 2.02 mg/kg | – | 13 mg/kg | – | –
6 | 25.3 nM | Cc1coc2cc(OCCCN3CCC(C(=O)c4ccc(F)cc4)CC3)ccc2c1=O | – | – | – | – | –
7 | 7.2 nM | O=c1cc(CO)oc2cc(OCCCN3CCC(c4noc5cc(F)ccc45)CC3)ccc12 | 5.88 mg/kg | – | > 100 mg/kg | – | –
8 | 1.4 nM | COCc1coc2cc(OCCCN3CCC(c4noc5cc(F)ccc45)CC3)ccc2c1=O | 0.27 mg/kg | – | 6.88 mg/kg | – | –
9 | – | O=C(O)c1coc2cc(OCCCN3CCC(c4noc5cc(F)ccc45)CC3)ccc2c1=O | > 10 mg/kg | – | > 50 mg/kg | – | –
10 | – | O=C(CCCN1CCC(O)(c2ccc(Cl)cc2)CC1)c1ccc(F)cc1 [HALOPERIDOL] | 0.31 mg/kg | 0.3 mg/kg | 2 mg/kg | 0.28 mg/kg | ED50 (Mus musculus [11]): 0.56 mg/kg
11 | – | CN1CCN(C2=Nc3cc(Cl)ccc3Nc3ccccc32)CC1 [CLOZAPINE] | 15.4 mg/kg | 6.41 mg/kg | > 100 mg/kg | 0.33 mg/kg | ED50 (Rattus norvegicus [1]): > 100 mg/kg; ED50 (Mus musculus [11]): 0.85 mg/kg
12 | – | Cc1nc2n(c(=O)c1CCN1CCC(c3noc4cc(F)ccc34)CC1)CCCC2 [RISPERIDONE] | 0.29 mg/kg | 0.2 mg/kg | 5 mg/kg | 0.41 mg/kg | ED50 (Rattus norvegicus [1]): 9.7 mg/kg; Ki [14]: 22000 nM
